Key:
[1] = tested on: IL-5 secreted by LN cells; assay: IL-5 secretion by GA-stimulated LN cells, MSD 9-plex ELISA (Example II); assay type: cell-based, mouse; conditions: for IL-5 secretion response ratio (treated cell medium to control DCCM1 medium): 21 hr
Method: Animals at 8 weeks of age were immunized by injection into four footpads using a 1 mL syringe with a 27-G, 1⁄2-inch needle. […] Ten days post-immunization, immunized animals were sacrificed via cervical dislocation. […] The LN cells were isolated by pressing the LN with the plunger end of a sterile syringe. […] Trypan blue exclusion method was used to determine the cell density of viable cells in the suspension. […] Cat. […] LN cells were plated into a 24-well tissue culture plate for drug stimulation. […] Cell debris was removed by centrifugation at ca. 200×g for 10 minutes at 4° C. Cytokines secreted by treated cells were determined on the day of collection by ELISA using mouse TH 1/TH 2 9-Plex Tissue Culture Kit (Meso Scale Discovery; Cat No. […]-2, Lot #: K0032839) which detects Th1 cytokines (IFN-γ, IL-2, IL-12, IL-1β, TNF-α, CXCL1) and Th2 cytokines (IL-4, IL-5 and IL-10). For IFN-γ, culture media also were assayed at 45 hours using mouse IFN-γ Tissue Culture Kit (Meso Scale Discovery; Cat No. […] For the positive control, 0.5 mL of LN cells (5×10^6 cells/well) were treated with 0.5 mL of ConA (5 μg/mL). For the negative control, 0.5 mL of LN cells (5×10^6 cells/well) were treated with 0.5 mL of MBP (20 μg/mL). The LN cells with mock stimulation (enriched DCCM1 medium) were used to monitor the background level of a cytokine. For the cytokine assays, calibration standards or samples were incubated in the MULTI-SPOT or the SINGLE-SPOT plate and each cytokine bound to its corresponding capture antibody. All test samples were run in duplicate. The amount of each cytokine on its distinct spot was quantified using a cytokine-specific detection antibody labeled with MSD SULFO-TAGTM reagent. Electrochemiluminescent signals from immobilized SULFO-TAGTM-labeled complexes on each spot from each well were captured by the MSD SECTOR Imager 6000, which produces a signal directly proportional to the amount of captured cytokine in a test sample. The levels of cytokines in test samples were derived by interpolation from calibration curves with calibration standards of known concentrations using reagents provided with the MSD kits. Kits were used according to the manufacturer's protocols. […] Data are expressed as a response ratio of cytokine concentration in treated cell medium to control DCCM1 medium.

[2] = tested on: IFN-γ secreted by LN cells; assay: IFN-γ secretion by GA-stimulated LN cells, MSD ELISA, 21 and 45 hr (Example II); assay type: cell-based, mouse
[3] = tested on: mouse IL-4 mRNA in primary LN cells; assay: Validation: mouse IL-4 mRNA by real-time PCR in LN cells of GA-immunized SJL/J mice (Example IV); assay type: cell-based; conditions: for induction of IL-4 mRNA: 20 μg/mL GA, 6 hours; for IL-4 mRNA Fold Change: normalized to GAPDH
Method: Three experiments were conducted using one batch of GA (Mylan GMA). The primary LN cells were stimulated by incubation with 6 concentrations (0.3 to 20 μg/mL) of the GA for 6 hours at 37° C. Total RNA was isolated from LN cells stimulated with GA or controls. cDNA was synthesized from the RNA and the mRNA levels of seven mouse cytokines, IL-2, IL-4, IL-5, IL-10, IL-13, interferon (IFN)-γ and tumor necrosis factor (TNF)-α, were quantitatively measured by a real-time PCR method.
Female SJL/J mice at 8-9 weeks of age were immunized by injection into four footpads using a 1 mL syringe with a 27-G, ½-inch needle. Each mouse received a total injection volume of 0.1 mL of GMA emulsified in CFA (about 10 μL into each of the front footpads and 40 μL into each of the hind footpads). Animals were immunized on Day 0. After injection, animals were placed back in their cages and housed ≤6 animals per cage.
Immunized animals were sacrificed by cervical dislocation on Day 10 following immunization. […] After centrifugation at about 200×g for 10 minutes at 4° C., the cell pellet was re-suspended in 40 mL of DCCM-1 medium for cell counting. A Trypan blue exclusion method was used to determine the cell density of viable cells in the suspension. After cell counting, the LN cells were suspended in enriched DCCM-1 medium at density of 7.5×10^6 cells/mL. LN cells (0.12 mL) were plated into each well of 96-well tissue culture plates.
Dilutions of GA (Mylan GMA) were prepared using enriched DCCM-1 medium as the diluent. GA dilutions (0.12 mL) were added in the assigned wells of 96-well tissue culture plates. The same volume of LN cells (0.12 mL) isolated from immunized animals was added to the assigned wells. A positive control and a negative control were always performed in the same assay by treating LN cells with 2.5 μg/mL ConA and 10 μg/mL MBP, respectively. The LN cells with mock stimulation protocols (enriched DCCM-1 medium) were used to monitor the background mRNA level of a cytokine. The plates were incubated at 37° C. in a humidified 5% CO2 incubator for 6 hr.
At the end of incubation time, culture medium from stimulated cells was removed by aspiration and the cells were lysed using Qiagen or Promega lysis buffer. The lysate was transferred to an RNeasy Mini column (Qiagen) or wells of the SV 96 Binding Plate (Promega) for RNA isolation and cDNA synthesis. All tested samples were run in triplicate.
The SV 96 Total RNA Isolation System (Promega; Cat. No. Z3505) was used for total RNA isolation. Assay procedures were carried out according to each manufacturer's protocol. RNA samples were stored at −70° C. until use. […] The assay procedure was carried out according to the manufacturer's protocol.
The plate was centrifuged at 2000 rpm for 2 minutes at 4° C. to spin down the contents and eliminate air bubbles. Samples were prepared and run in a 96-well plate using a Life Technologies Real-Time PCR system (previously Applied Biosystems; Model No. 7500) according to the manufacturer's recommendation. The mix for the reference gene was prepared in the same way using the reference gene primer.
A relative quantitation method was used to analyze changes in mIL-2, mIL-4, mIL-5, mIL-10, mIL-13, mIFN-γ and TNF-α expression in GA treated samples relative to the untreated control (Enriched DCCM-1 treated) samples using the following program:
Levels of mouse cytokine amplicons were normalized to an internal probe level (GAPDH) from the same samples. The following equations were used to calculate the relative increase in response to GA stimulation compared to the control sample (Enriched DCCM1 sample): […]

[4] = BALB/cByJ, immunized GA Intraplantar
[5] = BALB/cByJ, immunized GA Lower Limb
[6] = BALB/cByJ, immunized Mannitol Intraplantar
[7] = C57BL10J, immunized GA Intraplantar
[8] = C57BL10J, immunized GA Lower Limb
[9] = C57BL10J, immunized Mannitol Intraplantar
[10] = CD-1, immunized GA Intraplantar
[11] = CD-1, immunized Mannitol Intraplantar
[12] = BALB/cByJ, immunized GA Intraplantar, 21 hr
[13] = BALB/cByJ, immunized GA Intraplantar, 45 hr
[14] = BALB/cByJ, immunized GA Lower Limb, 21 hr
[15] = BALB/cByJ, immunized GA Lower Limb, 45 hr
[16] = BALB/cByJ, immunized Mannitol Intraplantar, 21 hr
[17] = BALB/cByJ, immunized Mannitol Intraplantar, 45 hr
[18] = C57BL10J, immunized GA Intraplantar, 21 hr
[19] = C57BL10J, immunized GA Intraplantar, 45 hr
[20] = C57BL10J, immunized GA Lower Limb, 21 hr
[21] = C57BL10J, immunized GA Lower Limb, 45 hr
[22] = C57BL10J, immunized Mannitol Intraplantar, 21 hr
[23] = C57BL10J, immunized Mannitol Intraplantar, 45 hr
[24] = CD-1, immunized GA Intraplantar, 21 hr
[25] = CD-1, immunized GA Intraplantar, 45 hr
[26] = CD-1, immunized GA Lower Limb, 21 hr
[27] = CD-1, immunized GA Lower Limb, 45 hr
[28] = CD-1, immunized Mannitol Intraplantar, 21 hr
[29] = CD-1, immunized Mannitol Intraplantar, 45 hr

“L-glutamic acid polymer with L-alanine, L-lysine and L-tyrosine, acetate (salt) [GA]” was tested, and the “IL-5 secretion, dose response to GA (in words)” value ([1]; BALB/cByJ cells and CD1 cells) was “dose-dependent manner”, the “IFN-γ secretion, dose response to GA (in words)” value ([2]; LN cells from each of the three mouse strains) was “dose-dependent manner” and the “induction of IL-4 mRNA” value ([3]; SJL/J, Exp 1) was 41.3 fold. For the same molecule, the “induction of IL-4 mRNA” value ([3]; SJL/J, Exp 2) was 11.8 fold, the “induction of IL-4 mRNA” value ([3]; SJL/J, Exp 3) was 27.6 fold and the “induction of IL-4 mRNA (in words)” value ([3]; SJL/J, different concentrations of GA vs unstimulated LN cells) was “robust induction”.

“Concanavalin A [ConA, reference compound]” was tested, and the “IL-5 secretion response ratio (treated cell medium to control DCCM1 medium)” value (shortened to “IL-5 secretion response ratio”) [1, 4] was 22.09, the “IL-5 secretion response ratio” value [1, 5] was 14.24 and the “IL-5 secretion response ratio” value [1, 6] was 13.33. The “IL-5 secretion response ratio” value [1, 7] was 8.16, the “IL-5 secretion response ratio” value [1, 8] was 5.24 and the “IL-5 secretion response ratio” value [1, 9] was 3.93. For the same molecule, the “IL-5 secretion response ratio” value [1, 10] was 13.49, the “IL-5 secretion response ratio” value ([1]; CD-1, immunized GA Lower Limb) was 6.35 and the “IL-5 secretion response ratio” value [1, 11] was 7.11. For the same molecule, the “IFN-γ secretion response ratio (treated cell medium to control DCCM1 medium)” value (from here on “IFN-γ secretion response ratio”) [2, 12] was 9.70, the “IFN-γ secretion response ratio” value [2, 13] was 11.40 and the “IFN-γ secretion response ratio” value [2, 14] was 6.24. For the same molecule, the “IFN-γ secretion response ratio” value [2, 15] was 7.33, the “IFN-γ secretion response ratio” value [2, 16] was 4.40 and the “IFN-γ secretion response ratio” value [2, 17] was 3.48. For the same molecule, the “IFN-γ secretion response ratio” value [2, 18] was 11.55, the “IFN-γ secretion response ratio” value [2, 19] was 53.10 and the “IFN-γ secretion response ratio” value [2, 20] was 5.07. For the same molecule, the “IFN-γ secretion response ratio” value [2, 21] was 5.15, the “IFN-γ secretion response ratio” value [2, 22] was 4.05 and the “IFN-γ secretion response ratio” value [2, 23] was 5.90. The “IFN-γ secretion response ratio” value [2, 24] was 10.14, the “IFN-γ secretion response ratio” value [2, 25] was 5.47 and the “IFN-γ secretion response ratio” value [2, 26] was 1.90. The “IFN-γ secretion response ratio” value [2, 27] was 1.89, the “IFN-γ secretion response ratio” value [2, 28] was 9.35 and the “IFN-γ secretion response ratio” value [2, 29] was 9.68. The “IL-4 mRNA Fold Change” value ([3]; Experiment 1, 2.5 μg/mL) was 148.6 fold, the “IL-4 mRNA Fold Change” value ([3]; Experiment 2, 2.5 μg/mL) was 21.0 fold and the “IL-4 mRNA Fold Change” value ([3]; Experiment 3, 2.5 μg/mL) was 53.8 fold.

B1: MBP: myelin basic protein, a negative control (protein, UniProt P02686 1-304, looked up)
Myelin basic protein: MGNHAGKRELNAEKASTNSETNRGESEKKRNLGELSRTTSEDNEVFGEADANQNNGTSSQDTAVTDSKRTADPKNAWQDAHPADPGSRPHLIRLFSRDAPGREDNTFKDRPSESDELQTIQEDSAATSESLDVMASQKRPSQRHGSKYLATASTMDHARHGFLPRHRDTGILDSIGRFFGGDRGAPKRGSGKDSHHPARTAHYGSLPQKSHGRTQDENPVVHFFKNIVTPRTPPPSQGKGRGLSLSRFSWGAEGQRPGFGYGGRASDYKSAHKGFKGVDAQGTLSKIFKLGGRDSRSGSPMARR
B1 was tested, and the “IL-5 secretion response ratio” value [1, 4] was 1.22, the “IL-5 secretion response ratio” value [1, 5] was 0.99 and the “IL-5 secretion response ratio” value [1, 6] was 1.07. The “IL-5 secretion response ratio” value [1, 7] was 1.31, the “IL-5 secretion response ratio” value [1, 8] was 0.85 and the “IL-5 secretion response ratio” value [1, 9] was 0.99. The “IL-5 secretion response ratio” value [1, 10] was 1.33, the “IL-5 secretion response ratio” value ([1]; CD-1, immunized GA Lower Limb) was 1.00 and the “IL-5 secretion response ratio” value [1, 11] was 1.16. For the same molecule, the “IFN-γ secretion response ratio” value [2, 12] was 0.87, the “IFN-γ secretion response ratio” value [2, 13] was 0.83 and the “IFN-γ secretion response ratio” value [2, 14] was 0.80. The “IFN-γ secretion response ratio” value [2, 15] was 0.92, the “IFN-γ secretion response ratio” value [2, 16] was 1.17 and the “IFN-γ secretion response ratio” value [2, 17] was 0.92. For the same molecule, the “IFN-γ secretion response ratio” value [2, 18] was 1.03, the “IFN-γ secretion response ratio” value [2, 19] was 1.07 and the “IFN-γ secretion response ratio” value [2, 20] was 1.60. For the same molecule, the “IFN-γ secretion response ratio” value [2, 21] was 1.80, the “IFN-γ secretion response ratio” value [2, 22] was 2.02 and the “IFN-γ secretion response ratio” value [2, 23] was 1.41. For the same molecule, the “IFN-γ secretion response ratio” value [2, 24] was 1.06, the “IFN-γ secretion response ratio” value [2, 25] was 0.89 and the “IFN-γ secretion response ratio” value [2, 26] was 0.90. The “IFN-γ secretion response ratio” value [2, 27] was 2.11, the “IFN-γ secretion response ratio” value [2, 28] was 1.57 and the “IFN-γ secretion response ratio” value [2, 29] was 7.22. The “IL-4 mRNA Fold Change” value ([3]; Experiment 1, 10 μg/mL) was 2.7 fold, the “IL-4 mRNA Fold Change” value ([3]; Experiment 2, 10 μg/mL) was 0.8 fold and the “IL-4 mRNA Fold Change” value ([3]; Experiment 3, 10 μg/mL) was 1.1 fold.

— US10344330B2, “Glatiramer acetate response biomarker mRNA potency assay” (Mylan Inc., priority 2013, dated 2019)
